Numbers after ± are expanded uncertainties.

Data on one compound can be found in the NIST ThermoML archive (doi:10.1016/j.fluid.2012.12.014).

For the series the following is noted: Liquid, Closed cell (Static) method.

The term vapor or sublimation pressure denotes the equilibrium pressure above the liquid or solid. In the case of `O` [water], the “vapor or sublimation pressure” value by setting is: (383.2 K) 142.5 ± 2.1 kPa; (393.2 K) 198.7 ± 2.2 kPa; (403.2 K) 270 ± 2.5 kPa; (413.2 K) 361.7 ± 2.8 kPa; (423.2 K) 476.1 ± 3 kPa.
